# From patent publication US20130150399A1, “INHIBITORS OF THE UNFOLDED PROTEIN RESPONSE AND METHODS FOR THEIR USE” (The Board of Trustees of the Leland Stanford Junior …, priority 2006, published 2013)
# Columns and labels:
# [1] = system: HT1080 tet-off Flag-XBP-1s cells; test: Colony formation of HT1080 tet-off Flag-XBP-1s cells under hypoxia; assay type: cell-based, human; conditions: 2.5 μM, hypoxia 48 hours
# Description: A. Effect of irestatin 9389 on PERK and ATF6 pathways. HT1080 cells were treated with vehicle alone (lanes 1-4) or 2.5 μM irestatin 9389 (lanes 5-8) and cultured under aerobic conditions for 18 hours (N) or shifted to hypoxia for the indicated times. Protein lysates were analyzed by Western blot analysis using antisera specific for ATF6 (top), CHOP/GADD153 (middle) or actin (bottom). Arrow indicates the cleaved, transcriptionally active form of ATF6. B. Cleavage of caspase-3 in irestatin-treated cells under hypoxia. HT1080 cells were cultured in normoxia (N) or under hypoxia for 36 hours (H 36) in absence or presence of irestatin 9389 (2.5 μM). Arrows indicate proteolytically cleaved caspase-3. C. Colony formation assay. HT1080 cells were treated as in B under normoxia (N) or hypoxia for 48 hours (H 48). Cells were harvested, counted, and allowed to grow under normal culture conditions for 11-12 days. Colonies were visualized with crystal violet staining. D. Quantification of clonogenic survival assay. Values represent the mean+/−SEM from at least 4 independent experiments. E. TUNEL staining of cells treated as in C. F. Quantification of TUNEL-positive cells. Values represent the mean+/− SEM from at least 3 experiments. […] Cells were harvested at the indicated times and counted by hemocytometer. Values represent the mean calculated from triplicate experiments+/−SEM. […]
# XBP-luciferase reporter = test: In vivo bioluminescence imaging of XBP-luciferase reporter tumor xenografts; set-up: species or system SCID mice
# Description: HT1080 fibrosarcoma cells (2×10^6) stably expressing the XBP-luciferase reporter were implanted s.c. into severe combined immune deficient (SCID) mice. Ten minutes prior to imaging, mice were injected i.p. with D-luciferin (150 mg/kg) solubilized in PBS. Optical bioluminescence imaging was performed using the IVIS charged-coupled device camera system (Caliper Life Sciences, Hopkinton, Mass.). Mice were imaged for 1-4 minutes per acquisition scan. Signal intensities were analyzed using Living Image software (Caliper).
# A. Irestatin 9389 impairs IRE1α activity in implanted tumor xenografts. Equal numbers (2×10^6) of XBP-luciferase or CMV-luciferase reporter cells were implanted s.c. into SCID mice. After one week, mice were treated with irestatin 9389 (50 mg/kg), followed by optical bioluminescence imaging. B. Inhibition of tumor growth by irestatin 9389. HT1080 s.c. tumor xenografts were established in SCID mice and allowed to reach a mean volume of 150 mm^3 before treatment. Irestatin 9389 (50 mg/kg) or vehicle control was administered q 2d by i.p. injection and continued for 2 weeks, for a total of 6 doses. Tumor volumes were calculated based on caliper measurements taken every 3-5 days. Data points represent the mean volume calculated from at least 7 tumors per group, with SEM shown in one direction. Mean mouse weights+/−SEM are shown in bottom graph. C.
# The increased sensitivity of irestatin-treated cells to hypoxic stress in vitro indicate that selective inhibition of IRE1α signaling could impact tumor growth. […] In contrast, XBP-1s was not detected in normal pancreas specimens (0/20), and infrequently observed in chronic pancreatitis (1/29) (FIG. 15). To explore the effects to irestatin 9389 in vivo, we first established animal dosing parameters using real-time bioluminescence imaging of SCID mice that had been implanted subcutaneously (s.c.) with tumor cells stably expressing the XBP-luciferase reporter. […] The XBP-luciferase signal returned to basal levels by 24 hours after treatment. […] (FIG. 16).
# CHOP/GADD153 = test: Western blot of CHOP/GADD153, hypoxic HT1080 cells; assay type: cell-based, human; conditions: 2.5 μM; hypoxia for 6-12 hours
# Description: Cells (2×10^6) were cultured in 10-cm dishes, collected using a cell scraper at 4° C., and lysed by addition of 150 μl cell lysis buffer [50 mM Tris pH 7.4, 150 mM NaCl, 10% glycerol, 0.5% Triton X-100. 0.5% NP-40, 2 mM Na3VO4, 20 mM beta-glycerophosphate, 10 mM NaF, 1 mM DTT, 1 mM PMSF). Lysates were centrifuged for 5 min at 10,000×g, and proteins (˜40 μg) were resolved by SDS-PAGE followed by semi-dry transfer to nitrocellulose membranes. Membranes were blocked in TBS-5% milk supplemented with 0.1% Tween-20. The blots were then probed overnight with relevant antibodies, washed, and incubated for 2 hours with species-specific secondary antibodies conjugated to horseradish peroxidase. After washing in block solution, immunoreactive material was detected by enhanced chemiluminescence (SuperSignal West Dura Extended, Pierce, Inc., Rockville, Ill.).
# A. Effect of irestatin 9389 on PERK and ATF6 pathways. […] Protein lysates were analyzed by Western blot analysis using antisera specific for ATF6 (top), CHOP/GADD153 (middle) or actin (bottom). […] Cells were harvested, counted, and allowed to grow under normal culture conditions for 11-12 days. […] D. Quantification of clonogenic survival assay. […] F. Quantification of TUNEL-positive cells. […] Cells were harvested at the indicated times and counted by hemocytometer. Values represent the mean calculated from triplicate experiments+/−SEM. […]
compound,measurement,setting,value
Cc1csc(NC(=O)CSc2nc3c(c(C(F)(F)F)c2C#N)CCC3)n1 [Compound 9389],decrease in viability,[1]; dox present (no Flag-XBP-1s),~60 fold
same,survival of hypoxic cells expressing Flag-XBP-1s,[1]; no dox,minimal effect on the survival
same,time by which XBP-luciferase signal returned to basal levels,"XBP-luciferase reporter; after treatment, 50-60 mg/kg",≤ 24 h
same,duration of XBP-luciferase reporter inhibition after the injection,XBP-luciferase reporter; single doses of 50-60 mg/kg,6 to 8 h
same,inhibition of XBP-luciferase reporter in tumors,XBP-luciferase reporter; single doses of 50-60 mg/kg,robustly inhibited
same,expression of CHOP/GADD153,CHOP/GADD153,increased
